Test results taken from patent US11958915B2, “Methods for treatment and diagnosis of non-alcoholic steatohepatitis and/or hepatocellular carcinoma” (Marshall University Research Corporation, priority 2020, dated 2024).

How the values were obtained:
[1] = test system: two human HCC cell lines (HEP3B and SNU475); assay: MTT cell proliferation assay, two human HCC cell lines; format: cell-based; conditions: PI3K/Akt pathway inhibitors on two human HCC cell lines
Procedure: (§1) In-vitro studies: cell lines and cell culture. Human HCC cell lines (HEP3B and SNU475 from ATCC, Cambridge, Mass.) were checked regularly for Mycoplasma contamination using RT-PCR kit while growing in culture with high glucose DMEM media supplemented with 10% FBS and 1% Penicillin/Streptomycin (HEP3), or with RPMI 1640 media supplemented with 10% heat inactivated FBS and 1% Penicillin/Streptomycin (SNU475) in 37° C. humidified incubator in presence of CO2 at 5%.
MTT Cell proliferation assay was performed by plating 5000 cells/well in 6 wells (per condition) of 96 well plates and allowed to adhere for 24 hours, when media was replaced with media±treatment agent for another 24 hours to finally assess cell proliferation according to the manufacturer's instructions (MTT assay, from #ATCC® 30-1010K, Cambridge, Mass.). Digoxin was dissolved in serum free media before addition to cells at designated concentrations.

[2] = test system: two human HCC cell lines (HEP3B and SNU475); assay: Protein expression by western blotting/confocal microscopy, two human HCC cell lines; format: cell-based; conditions: two Human HCC cells exposed to digoxin
Procedure: as §1
Confocal microscopy assessment on Immuno-stained cells/liver tissue. For in vitro studies, immunocytochemistry was performed on both human HCC cell lines as previously described. Briefly, the treated for 4 hours cells and the untreated cells were plated on glass coverslips and allowed to reach 70% confluency. […] Next day, slides were incubated with secondary antibodies (Alexa Fluor 488 or 549) and mounted with Vectashield mounting media on slides containing DAPI (Vector Laboratories, Inc., H-1800).
Western Blotting. […] Blocked membranes were incubated with the specific primary/secondary antibodies for protein signals to be detected by the Pierce ECL kit (Thermo Fisher Scientific, Waltham, Mass.), and quantified using ImageJ software.

| Structure (SMILES) | cell proliferation (MTT assay) [1] | expression of survivin [2] |
| --- | --- | --- |
| N#C/C(=C/c1ccc(O)c(O)c1)C(=O)NCc1ccccc1 [AG490] | inhibited cell proliferation |  |
| CC(C)(C)n1nc(-c2ccc(Cl)cc2)c2c(N)ncnc21 [PP2] | inhibited cell proliferation |  |
| C[C@H]1O[C@@H](O[C@H]2[C@@H](O)C[C@H](O[C@H]3[C@@H](O)C[C@H](O[C@H]4CC[C@@]5(C)[C@H](CC[C@@H]6[C@@H]5C[C@@H](O)[C@]5(C)[C@@H](C7=CC(=O)OC7)CC[C@]65O)C4)O[C@@H]3C)O[C@@H]2C)C[C@H](O)[C@@H]1O [digoxin] |  | increased the expression of survivin |
